Some results are limits rather than exact numbers.

Consider 1 compound from patent US11470844B2, “Vespidae wasp repellent” (KINP CO., LTD, priority 2015, dated 2022).

The subject of test [1] is Vespa analis insularis (Fabricius) nest. As to the kind of experiment: Spraying on nest surface, philopatry and homing, Experiment 2. Format: in vivo. From the text:
The inventors investigated the worker's philopatry and homing circumstance to the nest as follows. After the above-described experiment 1, benzyl alcohol was intermittently sprayed three times on the entire surface of the same nest of Vespa analis insularis (Fabricius) by using a sprayer equipped with a nozzle having a length of 1.5 m. An adult wasp on the nest surface, worker entering and leaving the nest holes and worker coming close to the nest were shot with a video camera. The experiment was started at 14:01:30 and finished at 14:10. The numbers of the adult wasp on the nest surface and in the nest were counted immediately after the experiment. The number of adult wasp in the nest was counted by inserting the whole nest in a paper bag, sealing the paper bag, and then deconstructing the nest.

For test [2], the system named is P. jokahamae jokahamae Radoszkowski worker. As to the kind of experiment: Spray on worker collecting Zelkova sap. The class given is in vivo, Polistes jokahamae jokahamae Radoszkowski. As for the experimental part: (§1) The experiment involving a worker group of Polistes jokahamae jokahamae Radoszkowski on the exterior wall of a nest found in the campus of Faculty of Agriculture, Kochi University, located on 200 Otsu, Monobe, Nankoku City, Kochi Prefecture, was conducted on Jul. 13, 2015, and the experiment involving a worker of P. jokahamae jokahamae Radoszkowski which collected sap bled from sucking mark by adult Cryptotympana facialis of Zelkova tree stem planted in a private house in Fuseishi-cho, Takamatsu City, Kagawa Prefecture was conducted on July 19 to 22, 2015. In addition, the experiment involving a worker group of P. chinensis antennalis Pe'rez on the exterior wall of a nest found on a branch of a cheesewood planted at a bank of Noda pond located at Fuseishi-cho, Takamatsu City, Kagawa Prefecture was conducted on Jul. 30, 2015.
(§2) The experiment was conducted in accordance with the above-described Example 1(1) involving a Vespa mandarinia worker, distilled water as a control example spray and benzyl alcohol as a test liquid example spray were sequentially sprayed on a test object group or a test object worker by using a sprayer, and the behavior from immediately after spraying up to 1 minute later was respectively recorded.

For test [3], the system named is Polistes jokahamae jokahamae Radoszkowski worker group. As to the kind of experiment: Spray on worker group on nest surface. Format: in vivo. As for the experimental part:
as §1, §2

[4] abbreviates: after first spray, 14:01:30 to 14:02:20.
The mark [5] stands for this setting: after second spray, 14:02:20 to 14:04:30.
[6] abbreviates: after third spray, 14:04:30 to 14:10:00.

For `OCc1ccccc1` [Benzyl alcohol, benzyl alcohol], the “adult wasps on nest surface and in nest at the end of the experiment” value in test [1] (14:10, after three sprays) is on record as “All of the adult wasps got away from the nest”. For the same compound, in test [1] (setting [4]), the Entered nest came out at 5; the “Flew away from nest” value was determined as 15; the “Flew to and alighted on nest surface and then flew away” value (from here on “Flew to and alighted”) is 1; the “Flew to and came close to nest surface and then flew away” value (shortened to “Flew to and came close”) was found to be 2. In test [1] (setting [5]), the Entered nest was 0; the “Flew away from nest” value is 10; the “Flew to and alighted” value came out at 2; the “Flew to and came close” value is on record as 6. In test [1] (setting [6]), the Entered nest was 0; the “Flew away from nest” value came out at 2; the “Flew to and alighted” value amounted to 4; the “Flew to and came close” value is 55. Besides, in test [2] (10 workers collecting sap), the “Effective (number of worker)” value worked out at 10 and the “No response (number of worker)” value worked out at 0. Also, the “time of flapping behavior before the worker flew away” value in test [2] (10 workers, or without flapping) was at most 1 s. Also, the “Number of P. jokahamae jokahamae Radoszkowski on nest surface” value in test [3] (10:02, 1 minute after spraying benzyl alcohol once, 11 workers before) was determined as 0. In test [3] (group of 11 workers), the “time within which all workers flew away from the nest after spraying” value was at most 10 s.
